How the values were obtained:
[1] = tested on: human osteosarcoma cells (MG-63); assay: Cytotoxicity by SRB assay, MG-63 cells; format: cell-based; details: 72 h, 0.01 μM to 100 μM
Procedure: (§1) The human prostate cancer cells (PC3) and human osteosarcoma cells (MG-63) were obtained from Nawah Scientific Inc. (Mokatam, Cairo, Egypt) and cultured in DMEM (Dulbecco's modified eagle's medium), Gibco, USA, supplemented with fetal bovine serum (FBS) at a concentration of 10% and 100 U/mL of penicillin and streptomycin (PS). The Cells were incubated at 37° C. in a humidified environment that contained 5% CO2.
(§2) Cells were seeded in 96-well plates as aliquots of 100 μL cell suspension and incubated in a complete media for 24 h. Afterward, cells were treated with 2-(1-(2-hydroxypropyl)-4,5-diphenyl-1H-imidazol-2-yl)pyridine at diverse concentrations ranging from 0.01 μM to 100 μM for 72 h. Then, cells were fixed at 4° C. for one hour with 150 μL of 10% trichloroacetic acid (TCA). After washing the cells five times with distilled water, 70 μL of sulforhodamine (SRB) solution (0.4% w/v) was added and incubated for 10 min at room temperature in a dark place. […] Then, 150 μL of Tris pH 10.5 (10 mM) was added, and the absorbance was measured at 540 nm using a BMG LABTECH®-FLUOstar Omega microplate reader (Ortenberg, Germany). Half maximal inhibitory concentrations (IC50) values were calculated for each experiment using GraphPad Prism 6 software. […]
(§3) The inhibition was calculated using the following equation: Inhibition %=100−Average Viability

[2] = tested on: human prostate cancer cells (PC3); assay: Cytotoxicity by SRB assay, PC3 cells; format: cell-based; details: 72 h, 0.01 μM to 100 μM
Procedure: as §1, §2, §3

melting point: 145 to 147 °C
Structure (SMILES): CN(C)CCCn1c(-c2cccnc2)nc(-c2ccccc2)c1-c1ccccc1 [3-(4,5-Diphenyl-2-(pyridin-3-yl)-1H-imidazol-1-yl)-N,N-dimethylpropan-1-amine]
antiproliferative activity [1]: excellent antiproliferative activities
antiproliferative activity [2]: excellent antiproliferative activities

Reference: patent US11981655B1, “3-(4,5-diphenyl-2-(pyridin-3-yl)-1H-imidazol-1-yl)-N,N-dimethylpropan-1-amine as an anticancer compound” (KING FAISAL UNIVERSITY, priority 2023, dated 2024)
